The subject of data set [1] is primary CD4+ T lymphocytes. Description: Annexin V/propidium iodide FACS apoptosis of stimulated primary blood CD4+ T lymphocytes. The format is cell-based, human. As to conditions: anti-CD3, anti-CD28, rIL-2; 4-5 days; at least comparable to 6-MP. An excerpt: Isolation of primary CD4^+ T lymphocytes and lamina propria cells: Human peripheral blood mononuclear cells (PBMCs) from healthy volunteers (25-42 years of age) and patients with Crohn's disease (31-65 years of age) were isolated using Ficoll-Hypaque gradients. PBMCs were further purified using CD4 monoclonal antibodies attached to immunomagnetic beads according to the manufacturer's protocol, followed by treatment with Detachabead (Dynal; Oslo, Norway). In some cases, CD4^+ T cells were further separated by negative selection techniques using CD45RO or CD45RA monoclonal antibodies (PharMingen; Heidelberg, Germany) and immunomagnetic beads (Dynal). […] Lamina propria mononuclear cells (LPMCs) from patients with IBD were isolated from gut specimens using a short-term (5-minute) digestion protocol with collagenase V, hyaluronidase (Sigma-Aldrich; St. Louis, Mo., USA), and DNase (Roche; Mannheim, Germany), as recently described in detail in Holtmann et al., Eur. J. Immunol. 32:3142-3151 (2002). Briefly, specimens were washed in calcium- and magnesium-free HBSS (HBSS-CMF), cut into 0.5-cm pieces, and incubated twice in HBSS containing EDTA (0.37 mg/ml) and DTT (0.145 mg/ml) at 37° C. for 15 minutes, followed by subsequent digestion for 5 minutes with collagenase V 400 (1 mg/ml), deoxyribonuclease (0.1 mg/ml DNase), and hyaloronidase (0.1 mg/ml) in a shaking incubator at 37° C. The digested tissue was washed twice in RPMI medium containing 10% FCS and centrifuged. The tissue was finally mechanically homogenized (DAKO homogenizer; Hamburg, Germany) for 4 minutes, and cells were filtered through a sterile 40-μm cell strainer (Falcon; San Diego, Calif., USA).
Such CD28 costimulation is known to prevent apoptosis of primary T cells during T cell receptor (TCR) stimulation through activation of bcl-x, and NF-κB (Noel et al., J. Immunol. 157:636-647 (1996); Radvanyi et al., J. Immunol. 156:1788-1798 (1996); Khoshnan et al., J. Immunol. 165:1743-1754 (2000)). […] In addition, recombinant IL-2 (R&D Systems; Wiesbaden, Germany) was used at a final concentration of 40 U/ml in all experiments. Lamina propria T lymphocytes were stimulated with antibodies to CD2 (4 μg/ml; Immunotech; Marseille, France) and CD28 (1 μg/ml). […] To block CD95L-mediated (FasL-mediated) apoptosis, the NOK-1 antibody (4 μg/ml, PharMingen) was used whose Fab fragments bind to human CD95L (FasL) (Jodo et al., J. Immunol. 165:5487-5494 (2000)). Recombinant human FasL (Alexis Biochemicals; Heidelberg, Germany) was used as a positive control for the NOK-1 antibody (10 μg/ml).
For FACS analysis, apoptotic cells were detected by staining with annexin V and propidium iodide using the Annexin V FITC Apoptosis Detection Kit I (PharMingen) (Atreya et al., Nat. Med. 6:583-588 (2000)). In brief, T cells were washed twice in PBS, and the pellet was resuspended in annexin V binding buffer (PharMingen) at a concentration of 10^6 cells per milliliter. Annexin V FITC and propidium iodide were added (5 ill of each per 10^5 cells). Samples were gently mixed and incubated for 15 minutes at room temperature in the dark before FACS analysis. To verify the results obtained with the annexin V/propidium iodide staining, analysis of T cells displaying DNA fragmentation was also determined by the Nicoletti technique, as described in (Nicoletti et al., J. Immunol. Methods 139:271-279 (1991)). 10^6 T cells were fixed in 70% ethanol, washed once in HBSS, resuspended in 1 ml of HBSS and 1 ml of phosphate citric acid buffer (0.2 mol/l Na2PO4 and 0.004 mol/l citric acid [pH 7.8]), and incubated at room temperature for 5 minutes. After centrifugation, cells were resuspended in 1 ml of HBSS containing 20 μg/ml propidium iodide and 10 U DNase-free RNase A and incubated at room temperature for 30 minutes. Finally, cells were analyzed on a FACScan flow cytometer. Because of the fragmentation of DNA, apoptotic cells appear as hypodiploid in the DNA histogram.

A further data set deals with Rac1. Description: Rac1 activation assay (GTP-bound Rac1, PAK pull-down). The format is cell-based, human. The following applies: primary T cells, 3 days. As to the method:
(§1) Cell lysates were incubated with 10 μg/ml PAK-1 agarose (Rac assays) or 10 μg/mg Raf RBD agarose (Ras assay) for 60 minutes (Rac assays) or 30 minutes (Ras assays) at 4° C. Agarose beads were collected by centrifugation followed by denaturation, boiling of the samples, and SDS-PAGE analysis.

The test system of another data set is Ras. Description: Ras activation assay (GTP-bound Ras, Raf RBD pull-down). The format is cell-based, human. The following applies: primary T cells. As to the method: as §1
Data set [2] relates to primary CD4+ T lymphocytes. Description: Blocking of caspase-8 and caspase-9 activity in 6-MP-induced apoptosis. The format is cell-based, human. The following applies: 10 μM inhibitor; FACS after 5 days. As to the method:
Blocking of caspase-8 and caspase-9 activity: Primary CD4^+ T lymphocytes from peripheral blood were isolated as described above and stimulated with antibodies to CD3 and CD28 in the presence or absence of indicated amounts of N-acetyl-Leu-Glu-His-Asp-aldehyde (Biomol), a reversible inhibitor of caspase-9, or Ac-Ile-Glu-Thr-Asp-aldehyde (Bachem; Heidelberg, Germany), an inhibitor of caspase-8. Apoptosis was determined by FACS analysis after 5 days of cell culture.

Data set [3] is described as follows: Stability of thioguanosine phosphates in patient blood samples. The format is in vitro ADME, human. How it is done:
Stability of the thioguanosine phosphates in blood samples was examined by storing blood samples from patients for up to 5 days at ambient temperature. RBC were isolated after the specified storage time and frozen at −80° C. until analysis.

Data set [4] is described as follows: Interconversion of TGDP and TGTP in spiked blank RBC during sample work-up. The format is in vitro ADME, human. As to the method: Calibration samples and controls were prepared as described in Rabel et al., supra, with minor modifications. Known amounts of 6-thioguanosine phosphates were added to a mixture of EDTA and 10 μl of DTT to give a final volume of 150 μl. Finally, 100 μl of blank RBC were added and the mixture thoroughly homogenized by vortex mixing. Sample preparation was performed as described above. Calibration curves covered the range of 10 to 50 pmol for TGMP, 10 to 100 pmol for TGDP, and 20 to 400 pmol for TGTP per sample referred to 100 μl of packed blank RBC. Standard curves were obtained by linear regression using peak areas versus concentrations. Because of the partial conversion of TGDP to TGTP and vice versa, both peak areas were summed up. In addition, combinations of 5 to 20 percent of TGDP per sum of TGDP and TGTP were prepared.
The percentage of conversion of TGDP to TGTP and of TGTP to TGDP was assessed using three sets of TGDP and TGTP calibrators prepared with different RBC.

Assay in data set [5]: as above
The format is in vitro ADME, human. This is another data set of the same source.

Data set [6] in a line: Stability during storage of RBC at −80° C. The format is in vitro ADME, human. How it is done:
Stability during storage of RBC at −80° C. was investigated in samples from 18 patients. RBC which were analyzed within one week after isolation were compared with RBC stored for up to 14 weeks.

Data set [7] can be described thus: Stability of thioguanosine phosphates in extracted samples. The format is physicochemical. The source says: Stability of thioguanosine phosphates in extracted samples was investigated by storage of extracted samples from 12 patients before oxidation and after oxidation for 14 days and comparing the results with the same samples analyzed immediately after oxidation.

In another data set the test system is Recombinant Ras. Briefly: Competition of [3H]GTP binding to recombinant Ras. As to conditions: 0-500 μM, Raf RGD pull-down, scintillation counting. As to the method: (§2) Rac and Ras activation assays: The levels of Rac1- and Ras-bound GTP were determined by immunoblot techniques (Upstate Biotech; London, United Kindom). […] Cell lysates were incubated with 10 μg/ml PAK-1 agarose (Rac assays) or 10 μg/mg Raf RBD agarose (Ras assay) for 60 minutes (Rac assays) or 30 minutes (Ras assays) at 4° C. Agarose beads were collected by centrifugation followed by denaturation, boiling of the samples, and SDS-PAGE analysis. Proteins were transferred to nitrocellulose membranes and incubated with 1 μg/ml murine anti-human Rac1 or anti-human Ras (clone Ras10) antibodies overnight at 4° C., followed by detection with goat anti-mouse HRP-conjugated IgG (1:1000 dilution) and the ECL detection system. To analyze the capacity of TGTP to bind to Rac1 or Ras, chemically synthesized TGTP (obtained from Jena Bioscience, Jena, Germany) was used. Recombinant Rac1 or Ras was incubated with radiolabeled GTP ([^3H]GTP, Amersham) and increasing amounts of TGTP (0-500 μM) followed by Rac1 and Ras pull-down through PAK and Raf RGD and analysis of [^3H]GTP-bound Rac1 or Ras by scintillation counting.

A further data set deals with Recombinant Rac1 (Homo sapiens, UniProt P63000). Description: Competition of [3H]GTP binding to recombinant Rac1. As to conditions: 0-500 μM, PAK pull-down, scintillation counting. As to the method: as §2
Data set [8] relates to primary CD4+ T lymphocytes. Briefly: Mitochondrial membrane potential (JC-1, FACS). The following applies: positive control, 50 μM for 18 hours.
[9] abbreviates: 5 days of storage of blood at ambient temperature.
The mark [10] stands for this setting: more than 10 different blank RBC.

As to `Nc1nc2nc[nH]c2c(=S)[nH]1` [6-TG, 6-thioguanine], the “apoptosis of primary blood CD4+ T lymphocytes” value in data set [1] was “marked apoptosis”. The “CD28 costimulation induced Rac1 activation (GTP-bound Rac1)” value in the data set with Rac1 is on record as “strongly suppressed”. The “activation of Ras (GTP-bound Ras)” value in the data set on Ras was “fail to modulate”.
On to “N-acetyl-Leu-Glu-His-Asp-aldehyde (Ac-LEHD-aldehyde; SMILES CC(=O)N[C@@H](CC(C)C)C(=O)N[C@@H](CCC(=O)O)C(=O)N[C@@H](Cc1c[nH]cn1)C(=O)N[C@H](C=O)CC(=O)O) [acetyl-LEHD-CHO]”, for which the “effect on 6-MP-induced apoptosis of primary T lymphocytes” value in [2] was “suppressed 6-MP-induced apoptosis”.
Consider Ac-IETD-aldehyde [acetyl-IETD-CHO], for which, in data set [2], the “effect on 6-MP-induced apoptosis of primary T lymphocytes” value is “lesser effects”.
As to `Nc1nc2c(ncn2[C@@H]2O[C@H](COP(=O)(O)O)[C@@H](O)[C@H]2O)c(=S)[nH]1` [TGMP, 6-thioguanosine monophosphate], the “amount of TGMP as share of total thioguanosine phosphates” value in data set [3] (setting [9]) is listed as “more than 70%”.
For `Nc1nc2c(ncn2[C@@H]2O[C@H](COP(=O)(O)OP(=O)(O)O)[C@@H](O)[C@H]2O)c(=S)[nH]1` [TGDP, 6-thioguanosine diphosphate], the “Area % of calibrator added, area calibrator × 100/(area TGTP + area TGDP), mean (n = 6)” value in [4] (spiked RBC 1) came to 91.6%; in data set [4] (spiked RBC 2), 92.6%; in [4] (spiked RBC 3) it was 92.8%; in data set [5] (0.9% NaCl), 100.0%. The figures for the “conversion of TGDP to TGTP” value in data set [4] (spiked samples from three healthy volunteers) and in data set [5] (setting [10]) were 7-8% and 6-15%, respectively. The “conversion of TGDP” value in data set [5] (0.9% NaCl) is listed as “did not show any conversion”. In addition, the “change of amount of TGDP” value in data set [3] (up to 5 days of storage of blood at ambient temperature) is listed as “did not change significantly”.
As for `Nc1nc2c(ncn2[C@@H]2O[C@H](COP(=O)(O)OP(=O)(O)OP(=O)(O)O)[C@@H](O)[C@H]2O)c(=S)[nH]1` [TGTP, 6-thioguanosine triphosphate], the “Area % of calibrator added, area calibrator × 100/(area TGTP + area TGDP), mean (n = 6)” value in data set [4] (spiked RBC 1) came out at 90.3%; in data set [4] (spiked RBC 2), 93.9%; in [4] (spiked RBC 3), 82.2%; in data set [5] (0.9% NaCl), 95.6%. For the same molecule, the “conversion of TGTP to TGDP” value is 9.7% in data set [4] (subject 1), 6.1% in data set [4] (subject 2), roughly 18% in data set [4] (third sample) and 6-20% in data set [5] (setting [10]). Moreover, the “TGDP found after sample work-up” value in [5] (saline samples spiked with TGTP) is “about 5%”. Also, in data set [6] (RBC from 18 patients at −80° C. for 8 to 14 weeks, thawed twice), the “decrease of the proportion of TGTP” value amounted to 7.6±7.6%. Besides, the “effect of repeated thawing and freezing of RBC samples” value in data set [6] (dephosphorylation of TGTP to TGDP) is on record as “progression in dephosphorylation”. Moreover, the “reduction of the proportion of TGTP” value in [7] (non-oxidized extracts kept 14 days at ambient temperature before oxidation, average (range from −5 to −12%)) turned out to be 7%. Moreover, the “decrease of TGTP proportion” value in data set [7] (oxidized samples stored for 14 days (range from −6 to −13%)) was “approximately 8%”. Further, the figures for the “competition with GTP for recombinant Ras / [3H]GTP-bound Ras” value in the data set with Recombinant Ras and with Recombinant Ras (listed as 6-Thio-GTP) were “did not significantly compete” and “little effect”, respectively. In addition, the results for the “binding to recombinant Rac1 / suppression of [3H]GTP-bound Rac1” value on Recombinant Rac1 and on Recombinant Rac1 (listed as 6-Thio-GTP) were “able to bind to recombinant Rac1 under in vitro conditions (although with lower affinity than GTP)” and “concentration-dependent suppression”, respectively. In addition, the TGTP recovered result in data set [3] (setting [9]) is recorded as “about 5%”. In addition, the “change of TGTP on storage of blood samples” value in data set [3] (one day at ambient temperature) is recorded as “marked decrease”.
In the case of `N#CC(C#N)=NNc1ccc(OC(F)(F)F)cc1` [FCCP, carbonylcyanide-4-(trifluoromethoxy)-phenylhydrazone], in [8], the “ΔΨm in primary CD4+ T cells” value is listed as “marked reduction of ΔΨm”.
